For the test, the system named is cytoplasmic Ca2+. Nature of the test: Calcium imaging of Ng-inoculated polarized epithelial cells (FluoForte, Fluo-4). The class given is cell-based, human. The settings on record: MS11Opa+ and MS11ΔOpa-inoculated polarized epithelial cells, 4 h; 2APB 10 μM, BAPTA 50 μM. From the text: Ng inoculation induces Ca^2+-dependent redistribution of active NMII in polarized epithelial cells. A major upstream signaling molecule of MLCK is calmodulin that is activated by Ca^2+. To investigate if Ca^2+ is involved in Ng induced redistribution of active NMII, we determined if Ng inoculation would induce Ca^2+ flux in polarized epithelial cells. We used two Ca^2+ indicators, FluoForte (FIGS. 7A and 7B) and Fluo-4 (FIG. 11) to determine the cytoplasmic Ca^2+ level. Polarized T84 (FIGS. 7A and 7B, and FIG. 11A and FIG. 11B) and HEC-1-B (FIG. 11C and FIG. 11D) were incubated apically with MS11Opa+ or MS11ΔOpa for 4 h. The cells were then loaded with the fluorescent Ca^2+ indicator, and the cell membrane marked by the membrane dye CellMask. Cells were imaged using 3D-CFM (FIG. 7A, and FIGS. 11A and 11C). The mean fluorescence intensity (MFI) of the Ca^2+ dyes in individual cells was measured to estimate the cytoplasmic level of Ca^2+ (FIG. 7B, and FIGS. 11B and 11D). […]
Calcium imaging. […] To quantify the intracellular Ca^2+ level, the cytoplasmic region of individual cells was manually selected based on the CellMask staining in randomly acquired confocal images, and the mean fluorescent intensity (MFI) of Fluoforte and Fluo-4 in the cytoplasmic region was measured using the NIH ImageJ software.

For `NCCOB(c1ccccc1)c1ccccc1` [2APB], the “MFI of the Ca2+ indicators (cytoplasmic Ca2+ level)” value is reported as “back to the basal level”.

These data come from US10660933B2, “Compositions and methods for inhibition of bacterial infections in human endocervix” (priority 2015, dated 2020).
